{
  "source": "patent US6379696B1",
  "about": "“Therapeutic preparation for the transdermal administration of active substances” (priority 1995, dated 2002)",
  "key": {"[1]": {"conditions": "topical application; cited from earlier work"}, "[2]": {"test": "Permeation rate of morphine base through excised guinea pig skin with added LOVASTATIN", "conditions": "LOVASTATIN 2%-wt. added; after 24 h; released in 0.9% salt solution, T=37° C., n=3"}},
  "data": [
    {"smiles": "CC[C@H](C)C(=O)O[C@H]1C[C@@H](C)C=C2C=C[C@H](C)[C@H](CC[C@@H]3C[C@@H](O)CC(=O)O3)[C@H]21", "note": "[LOVASTATIN]", "values": [
      {"measurement": "DNA-synthesis in the epidermis", "setting": "[1]", "result": "increase"},
      {"measurement": "cholesterol level in the skin", "setting": "[1]", "result": "decrease"},
      {"measurement": "transepidermal loss of water", "setting": "[1]", "result": "increase"},
      {"measurement": "permeation rate of morphine base", "setting": "[2]", "result": "double"}
    ]}
  ]
}
